# Reference: patent US10653670B2, “Use of indole compounds for fat reduction and skin and soft tissue tightening” (Alevere Medical Corporation, priority 2013, dated 2020)
# Entries after “also recorded” stand apart in the source; their conditions may differ.
# Experiments:
# [1] = tested on: adipocytes; test: LIVE/DEAD calcein/ethidium bromide assay, adipocyte kill rate; assay type: cell-based, human; conditions: for Adipocyte, averaged ethidium numbers: kill rate (ethidium), all tissue types on the same plate; for adipocyte kill rate / aggressiveness: Example 2, FIGS. 5-8 and table
# Description: (§1) The time and concentration dependent effects of drug substance on both cell viability and toxicity were evaluated using a two-color fluorescence assay that measures plasma membrane integrity and intracellular enzyme activity. Live cells are determined by the strong fluorescence of calcein AM upon enzymatic conversion. […] The ratio of ethidium to calcein fluorescence is an excellent measure of the relative amount of live and dead cells.
# (§2) Initial screening was performed using a variety of cell viability and cytotoxicity assays, including Presto Blue® (Invitrogen, Grand Island, N.Y.), Alamar Blue® (Invitrogen, Grand Island, N.Y.), Cyto-Tox One® (Promega, Madison, Wis.), and Cell Titer Glo® (Promega, Madison, Wis.). […] An MTT terazolium assay was performed, as well as LDH and ATP based assays. […] The LIVE/DEAD® for mammalian cells assay was used. LIVE/DEAD® for mammalian cells assay is a calcein (live read)/ethidium bromide (dead) multiplex assay.
# (§3) A sample of DMSO/PBS was a negative control. A sample of Aqualyx® was a positive control. In the table, 24M is phosphatidylcholine 25 mg/ml plus deoxycholate 12 mg/and 25N is C 50/DC24; these were positive controls. The numbers in the table refer to averaged ethidium numbers. The percentages represent the relative kill rate for each cell type when rated against the adipocyte kill rate for that compound. All tissue types were tested on the same plate against adipocytes in order to standardize results.
# (§4) Over seventy compounds of the embodiments were tested for adipocytolysis, then for tissue preference. A consistent assay with multiplex information was a calcein/ethidium bromide assay that assesses cell viability and cell death simultaneously. Cell viability was checked using the Countess device. All plates were inoculated with 100 microliters of the appropriate cell types. A 6 well repeat was used to verify results. Cell types used included cultured human adult derived adipocytes, dermal fibroblasts, skeletal muscle cells, and endothelial cells (Cell Applications, Inc., San Diego, Calif.). Human peripheral nerve cells (Innoprot, Spain) were also used.
# (§5) Compounds were formulated using a DMSO/PBS excipient. A 10 mg/ml concentration was used. One hundred microliters of test compound was inserted into 6 wells of 5 cell types, placed in adjacent rows. The plates were incubated for 4 hours. Indicator was added to each well, and plates were read at 45 minutes using a fluorescence spectrophotometer (Molecular Devices, Sunnyvale, Calif.).
# [2] = tested on: dermal fibroblasts; assay type: cell-based; conditions: for Dermis, averaged ethidium numbers: kill rate (ethidium), same plate as adipocytes; for Dermis, relative kill rate rated against the adipocyte kill rate: percentage in brackets; for toxicity to dermis / dermal fibroblasts: Example 2, FIGS. 6-8
# Description: as §1, §2, §3, §4, §5
# [3] = tested on: nerve cells; assay type: cell-based; conditions: for Nerve, averaged ethidium numbers: kill rate (ethidium), same plate as adipocytes; for Nerve, relative kill rate rated against the adipocyte kill rate: percentage in brackets; for toxicity to nerve cells: Example 2, FIGS. 6-8
# Description: as §1, §2, §3, §4, §5
# [4] = tested on: skeletal muscle cells; test: LIVE/DEAD calcein/ethidium bromide assay, muscle cell kill rate; assay type: cell-based, human; conditions: for Muscle, averaged ethidium numbers: kill rate (ethidium), same plate as adipocytes; for Muscle, relative kill rate rated against the adipocyte kill rate: percentage in brackets
# Description: as §1, §2, §3, §4, §5
# [5] = tested on: endothelial cells; test: LIVE/DEAD calcein/ethidium bromide assay, endothelial cell kill rate; assay type: cell-based, human; conditions: for Endothelial, averaged ethidium numbers: kill rate (ethidium), same plate as adipocytes; for Endothelial, relative kill rate rated against the adipocyte kill rate: percentage in brackets
# Description: as §1, §2, §3, §4, §5
# [6] = tested on: adipocytes over nerve cells, dermal cells, muscle cells, and endothelial cells; test: LIVE/DEAD assay, tissue preference (adipocytes versus other cell types); assay type: cell-based, human; conditions: for tissue specificity / tissue preference: Example 2, FIGS. 5-8 and table, 2 and 5 hours in FIGS. 6-8; for tissue preference for adipocytes: Example 2
# [7] = tested on: adipocytes; test: Histology of injected immediate ex-vivo abdominoplasty tissue; assay type: cell-based, human; conditions: at 1 hour
# Description: As the indole group has not been previously used for intralesional fat reduction, a method of obtaining histologic specimens had to be modified.
# The tissue model described herein, therefore, was immediate ex-vivo abdominoplasty tissue that had been permitted for use by the surgical patient. Segments of abdominal skin and subcutaneous fat were injected with identified test compounds, plus a negative saline control and three positive controls: 1% deoxycholate, the commercial preparation of Aqualyx®, and the Network Lipolysis PC/DC formula.
# Because there was no host; inflammatory changes would not be expected. This study was only performed to assess the immediacy of adipocyte changes, and to determine the method of action of each compound.
Compound,"Adipocyte, averaged ethidium numbers [1]","Dermis, averaged ethidium numbers [2]","Nerve, averaged ethidium numbers [3]","Muscle, averaged ethidium numbers [4]","Endothelial, averaged ethidium numbers [5]",tissue specificity / tissue preference [6],adipocyte kill rate / aggressiveness [1],"Dermis, relative kill rate rated against the adipocyte kill rate [2] [%]","Nerve, relative kill rate rated against the adipocyte kill rate [3] [%]","Muscle, relative kill rate rated against the adipocyte kill rate [4] [%]","Endothelial, relative kill rate rated against the adipocyte kill rate [5] [%]",histology finding / mechanism of action [7],tissue preference for adipocytes [6],toxicity to dermis / dermal fibroblasts [2],toxicity to nerve cells [3]
"O=Cc1c[nH]c2ccccc12 [Compound 1, 1H-indole-3-carbaldehyde]",53,56,60,82,98,no preference,,,,,,,,,
"O=Cc1cc2ccccc2[nH]1 [Compound 2, 1H-indole-2-carbaldehyde]",360,101,124,93,116,most strongly tissue preferential; also recorded: high specificity,aggressive; also recorded: most aggressive,28,39,26,32,more cytolysis than apoptosis,,,
"O=Cc1ccc2[nH]ccc2c1 [Compound 3, 1H-indole-5-carbaldehyde]",42.5,26.5,26,25,25,moderate preference,,62,61,59,59,,,,
"O=Cc1cccc2cc[nH]c12 [Compound 4, 1H-indole-7-carbaldehyde]",127,79,66,99,86,shows specificity for adipocyte killing,less aggressive,62,52,78,63,,about 50%,,
"O=Cc1cccc2[nH]ccc12 [Compound 5, 1H-indole-4-carbaldehyde]",36,17,17,27,16,,,47,47,75,44,,about 50%,late dermal spike,more nerve preservation
"O=Cc1c[nH]c2c3c(ccc12)CCC3 [Compound 7, 1,6,7,8-tetrahydrocyclopenta[g]indole-3-carbaldehyde]",196,103,56,119,69,not tissue preference,,53,30,61,35,,,,
"O=C(O)CCCc1c[nH]c2ccccc12 [Compound 10, 4-(1H-indol-3-yl) butanoic acid]",45,10,12,13,16.5,,most aggressive,22,27,29,37,,,,
"O=C(O)c1cccc2[nH]ccc12 [Compound 27, 1H-indole-4-carboxylic acid]",,,,,,high specificity,,,,,,,,,
"O=C(O)c1ccc2[nH]ccc2c1 [Compound 28, 1H-indole-5-carboxylic acid]",,,,,,high specificity,high kill rate,,,,,,,,
"O=C(O)c1c[nH]c2ccccc12 [Compound 30, 1H-indole-3-carboxylic acid]",,,,,,,,,,,,,about 50%,,
"O=C(O)c1cc2cc(Br)ccc2[nH]1 [Compound 40, 5-bromo-1H-indole-2-carboxylic acid]",123,33,61,36,40,most strongly tissue preferential; also recorded: tissue specificity at two time points; also recorded: high specificity,moderate,27,50,29,33,,,,
"O=Cc1c[nH]c2cccc(OCc3ccccc3)c12 [Compound 43, 4-(benzyloxy)-1H-indole-3-carbaldehyde]",340,74,58,73,92.5,most strongly tissue preferential,aggressive; also recorded: adipolytic,22,17,21,27,,,low kill rate,low kill rate
"O=Cc1c[nH]c2cc(OCc3ccccc3)ccc12 [Compound 44, 6-(benzyloxy)-1H-indole-3-carbaldehyde]",218,134,103,172,129,not as specific as the other compounds tested in this group,,61,47,79,59,,about 50%,,
"O=C(O)[C@H]1Cc2c([nH]c3ccccc23)[C@@H](c2ccc(O)cc2O)N1 [Compound 78, (1R,3R)-1-(2,4-dihydroxyphenyl)-2,3,4,9-tetrahydro-1H-pyrido [3,4-b]indole-3-carboxylic acid]",29.5,8.3,,8.7,9.8,high specificity,,28,,29,33,,,,
